Source: patent publication US10266520B2, “Bisamidinium-based inhibitors for the treatment of myotonic dystrophy” (The Board of Trustees of the University of Illinois, priority 2014, dated 2019)

Target: MBNL1-(CUG)16 complex
Test: EMSA inhibition of the MBNL1-(CUG)16 complex
Format: biochemical
Details: EMSA; KI=IC50×KD/[protein]total; read-out: KI, apparent inhibition constant, MBNL1-(CUG)16 complex
Procedure: FIG. 1A-B. Determination of inhibition constants, KI, by EMSA. (a) Representative gels showing the release of (CUG)16 at different ligand concentrations. Top band is the MBNL1-(CUG)16 complex, the bottom band is the free (CUG)16. (b) IC50 values were obtained by plotting the RNA fraction bound versus ligand concentrations. The apparent inhibition constant (KI) was calculated using the equation: KI=IC50×KD/[protein]total, where KD is the dissociation constant of the MBNL1-RNA complex and [protein] is at least 7-fold greater than the KD. Error bars represent standard deviation of three independent experiments.
An electrophoretic mobility shift assay (EMSA) was employed to determine the in vitro inhibition of MBNL1-rCUG^exp complex by monomer 1a and dimers 2a-b (FIG. 1). This study used (CUG)16, which can form a hairpin structure containing a maximum of 8 U-U mismatches. […] Likely, a 1:1 complex was formed. In this study, a truncated MBNL1 (1-272 amino acids) containing four zinc finger motifs of MBNL1 and a hexahistidine tag (C-terminus) was employed. This MBNL1 construct and the full-length MBNL1 have the similar affinities to rCUG repeats.
To determine the inhibition constant of bivalent ligands 2a and 2b, the MBNL1-(CUG)16 mixture, in which ca. 50% of the RNA is free, was incubated with various concentrations of ligand (FIG. 1a). The dimer concentrations were not raised to higher than 10 μM due to the aggregation on the gel at high concentrations. As the concentration of ligand increased, more RNA was released from the complex with MBNL protein. By fitting the plot of bound RNA fractions versus ligand concentrations with an appropriate equation, the IC50 value was determined (FIG. 1b).
(CUG)16 RNA was labeled with [γ-^32P]-ATP using T4 poly-nucleotide kinase (New England Biolabs). Labeled RNA was purified by phenol extraction and ethanol precipitation. Labeled RNA was heated at 95° C. for 5 min, then placed on ice for 10 min and diluted in protein binding buffer (175 mM NaCl, 5 mM MgCl2, 20 mM Tris-HCl (pH 8), 1.25 mM 2-mercapto-ethanol (BME), 12.5% glycerol, 2 mg/ml bovine serum albumin (BSA), 0.1 mg/ml heparin, 0.05% or 0.1% Triton X). For MBNL1-(CUG)16 binding study, MBNL1 was serially diluted by a factor of 3 in protein binding buffer. To each solution was added labeled RNA, so that the final concentration of RNA was 0.2 nM. The resulting mixtures were incubated at room temperature for 10 min and loaded onto a 6% polyacrylamide gel (80:1) at 4° C. The gel was run for 2 h at 180 V in Tris-Borate 0.5× buffer (pH 8.2-8.3). Gels were dried at 80° C. under high vacuum for 2 h, developed overnight in phosphor exposure cassette, and visualized on a Molecular Dynamics Storm PhosphorImager. The KD (1:1 stoichiometry assumption) was obtained by fitting the normalized fraction RNA bound versus the concentration of protein using the equation: Fraction RNA bound=Bmax×[MBNL1]total^h/(KD^h+MBNL1]total^h) where Bmax is maximum fraction RNA bound, h is a Hill slope. Protein concentration in reaction mixture was larger than 10-fold excess over RNA concentration. Data is illustrated in FIGS. 6 and 7.

`N=C(NCCCCNc1nc(N)nc(N)n1)c1ccc(C(=N)NCCCCNc2nc(N)nc(NCCCn3cc(CCNc4nc(N)nc(NCCCCNC(=N)c5ccc(C(=N)NCCCCNc6nc(N)nc(N)n6)cc5)n4)nn3)n2)cc1` [Compound 2b] showed a Ki of 36 ± 12 nM.
